In patent publication US20120178782A1, “COMPOSITIONS AND METHODS FOR TREATING PROLIFERATIVE DISEASES” (priority 2009, published 2012):
≈ marks a conversion by molar mass, not a printed value.

How the values were obtained:
MDA-MB-231 = experiment: MTT cell proliferation assay, breast cancer cell line MDA-MB-231; format: cell-based, human; settings: single inhibitor, 72 hours culture; for minimum inhibitory concentration (cell proliferation): FIG. 1; for minimum proliferation inhibitory concentration: FIG. 1C, 1F
Text: In the experiments described below, the cells used are human breast and colon cancer cell lines. The breast cancer cell lines were obtained from Lombarda Cancer Center, Georgetown University Medical Center. The breast cancer lines are cell lines called […] and Hs578T. These cells show a high rate of proliferation, absence of estrogen receptors, are capable of forming tumors in naked mice and show a highly aggressive phenotype. Both lines are used very frequently as breast cancer models. The colon cancer cell line is the cell line called SW620 that was originally isolated from the lymphatic nodules of a patient with colon adenocarcinoma.
The cells are cultivated in polystyrene culture bottles (Corning, Corning, N.Y.). Both cell lines are kept in culture in DMEM medium (Dulbeco's Modified Tagle Medium, obtained from Gibco, Invitrogen Corporation, NY. USA) and supplemented with 10% fetal bovine serum (FBS) (obtained from PAA, GmbH Laboratories, Pasching, Austria), and supplemented with 100 U/ml of penicillin and 10 μg/ml of streptomycin (Gibco, Invitrogen Corporation, NY, USA) in incubator 37° C. In humidified atmosphere of […]/5% CO2.
There were carried out curves of dose-cell proliferation inhibition response of the human breast cancer cell line MDA-MB-231, with the intent of objectively knowing the minimum concentrations that produce a proliferation inhibiting effect.
In all the cases, the cell proliferation measurement was carried out using the MTT techniques of incorporation of Bromodeoxyuridine (BrdUr) (5-bromine-2′-deoxyuridine of Elisa Roche Applied Science, Mannheim, Germany) and the violet crystal coloration technique.
The cells were cultivated in microplates (Orange Scientific) of 96 cavities in the amount of 4,000 cells per cavity in 200 ul of DMEM supplemented with FCS supplemented with 100 U/ml of penicillin and 10 ug/ml of streptomycin in incubator at 37° C. with atmosphere of […]/5% CO2. A the end of this period, the cells were cultivated for another 24 hours in culture medium in the absence of serum. At the end of this period, culture medium with scram in the absence (control) or presence of different inhibitors was added, in accordance with the following:
The cells were kept in culture for 72 hours. Then, thiazol blue bromide reagent was added (3-(4,5-dimethylthiazol-[…])-2,5-diphenyltetrazolium bromide). It was incubated for 180 minutes at 37° C. After this time, the culture medium was discarded and the formazan crystals formed were dissolved with 200 ul of dimethylsulfoxide. The microplates were agitated for 15 minutes to dilute the crystals of homogeneous form, and absorbance was determined at 620 nm in a plate reader, “Biotra II, plate reader,” of Amersham Biosciences Inc., Piscataway, N.J., USA.

cell growth = settings: Min Yao et al. 2005; cited from earlier work
COX-2 enzyme = molecular target: T1, COX-2 enzyme (Homo sapiens, UniProt P35354); settings: plasma concentrations; cited from earlier work
T1 sequence (P35354 18-604): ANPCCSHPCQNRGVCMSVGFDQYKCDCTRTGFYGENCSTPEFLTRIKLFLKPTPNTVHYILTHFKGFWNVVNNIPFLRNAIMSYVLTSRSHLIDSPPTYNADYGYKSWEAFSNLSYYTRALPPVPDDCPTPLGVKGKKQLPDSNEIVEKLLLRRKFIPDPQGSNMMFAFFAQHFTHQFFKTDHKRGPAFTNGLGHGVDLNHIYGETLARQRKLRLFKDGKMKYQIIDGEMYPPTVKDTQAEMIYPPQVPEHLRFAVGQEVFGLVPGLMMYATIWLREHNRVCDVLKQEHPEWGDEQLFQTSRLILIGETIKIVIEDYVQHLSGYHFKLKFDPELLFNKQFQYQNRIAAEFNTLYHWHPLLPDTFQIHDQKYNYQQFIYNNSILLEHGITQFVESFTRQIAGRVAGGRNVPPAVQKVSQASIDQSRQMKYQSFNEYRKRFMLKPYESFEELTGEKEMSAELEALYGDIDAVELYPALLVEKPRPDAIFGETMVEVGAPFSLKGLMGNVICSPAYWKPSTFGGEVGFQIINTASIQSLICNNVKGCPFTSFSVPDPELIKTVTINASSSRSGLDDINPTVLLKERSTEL

[1] = test system: cells of the microvascular endothelium; settings: per se inhibitory doses of 75 μM; Kakiuchi-Kiyota et al. 2009; cited from earlier work

Row | Structure (SMILES) | minimum inhibitory concentration (cell proliferation) (MDA-MB-231) [µM] | also measured
1 | CC(c1cc2ccccc2s1)N(O)C(N)=O (stereo not shown) [Zileuton] | 500 (≈ 118 µg/mL) | –
2 | CC(C)Cc1ccc(C(C)C(=O)O)cc1 (stereo not shown) [Ibuprofen] | 500 (≈ 103 µg/mL) | dose for cell growth inhibition (cell growth): at least 500 μM
3 | Cc1ccc(-c2ncc(Cl)cc2-c2ccc(S(C)(=O)=O)cc2)cn1 [Etoricoxib] | – | minimum proliferation inhibitory concentration (MDA-MB-231): 1000 nM
4 | CC1=C(C)C(=O)C(CCCCC#CCCCC#CCO)=C(C)C1=O [AA861, Docebenone] | 10 (≈ 3.26 µg/mL) | –
5 | COc1cc(C(=O)NS(=O)(=O)c2ccccc2C)ccc1Cc1cn(C)c2ccc(NC(=O)OC3CCCC3)cc12 [Zafirlukast] | – | minimum proliferation inhibitory concentration (MDA-MB-231): > 100 nM
6 | CN(CCOc1ccc(CC2SC(=O)NC2=O)cc1)c1ccccn1 (stereo not shown) [Rosiglitazone] | 75 (≈ 26.8 µg/mL) | –
7 | CC(=O)Oc1ccccc1C(=O)O [aspirin, acetylsalicylic acid] | – | plasma concentration inhibiting COX-2 enzyme (COX-2 enzyme): greater than 0.5 mM
8 | Cc1c(C)c2c(c(C)c1O)CCC(C)(COc1ccc(CC3SC(=O)NC3=O)cc1)O2 (stereo not shown) [Troglitazone] | 75 (≈ 33.1 µg/mL) | toxic effects on endothelial cells [1]: toxic effects were described
